{
  "source": "paper PMC7849180",
  "about": "(Frontiers in Pharmacology, 2020)",
  "key": {"[1]": {"test_system": "myeloproliferative neoplasm", "assay": "JAK2V617F transgenic mouse model", "format": "in vivo, JAK2V617F transgenic mice", "conditions": "100 mg/kg daily oral gavage, 4 weeks", "procedure": "Suzhou Zelgen Biopharmaceuticals Co., Ltd. Jaktinib Hydrochloride Tablets Chemical Drug Class 1 New Drug […]\ncells at a concentration of 1 μM. […]\neffectively affect the primary cells harboring the JAK2V617F mutation in patients with […]\nIn Vivo Pharmacodynamic Study of ZG0128 in Mouse Model of Myeloproliferative Neoplasm\nPrimary myelofibrosis (PMF) is characterized by the formation of bone marrow fibrous tissues (scar-like) caused by the abnormal proliferation of three types of cells (platelets, white blood cells, and red blood cells). At present, there is still no particularly effective treatment for these diseases. JAKV617F transgenic mice and JAK2V617F bone marrow transplanted mice can develop the pathological characteristics of myeloproliferative neoplasm, which can be used to effectively evaluate the efficacy of drugs used in the treatment of myeloproliferative neoplasms.\nHCD-57-JAK2V617F cells were intravenously injected into NSG mice. Three weeks later, the mice were injected intraperitoneally with a single dose of 200 mg/kg of compound ZG0128, and euthanized 4 h after drug administration. The results of […]\nThe ability of compound ZG0128 and its positive control drug ZG0192 to inhibit the pathological characteristics of myeloproliferative tumors (MPNs) was evaluated in a JAK2V617F bone marrow transplanted mouse model. […]"}, "test strains": {"test_system": "test strains", "assay": "Ames test", "conditions": "9.76–6100 μg/mL, with or without S9", "excerpt": "Suzhou Zelgen Biopharmaceuticals Co., Ltd. Jaktinib Hydrochloride Tablets"}, "[2]": {"assay": "26-week oral gavage toxicity", "format": "in vivo, Wistar rats", "procedure": "Suzhou Zelgen Biopharmaceuticals Co., Ltd. Jaktinib Hydrochloride Tablets Chemical Drug Class 1 New Drug\nWistar rats were given 4, 12, or 30 mg/kg of ZG0128 via oral gavage once a day for 26 consecutive weeks, followed by 28 days for recovery after drug discontinuation.\nOnly the 30 mg/kg dose caused a slight decrease in lymphocyte counts, which might be related to the pharmacological effects of ZG0128. The lymphocyte counts were back to normal by the end of recovery period. No other obvious abnormalities related to the […]\nconditions, body weight, ophthalmologic examination, blood biochemistry, blood coagulation, routine urinalysis, gross anatomy and histopathological examination during the trial. The no observed adverse effect level (NOAEL) was 30 mg/kg. At this dose, the drug exposure was 52697 h•ng/mL (based on the active ingredient ZG0163) in female rats and 67133 h•ng/mL in male rats on the first day of dosing, and on day 182 of dosing the drug exposure was 75339 h•ng/mL (based on the active ingredient ZG0163) in female rats and 45024 h•ng/mL in male rats. […]"}, "[3]": {"assay": "Metabolic stability in liver microsomes", "format": "in vitro ADME, human", "procedure": "The metabolic stability of ZG0128 (the dihydrochloride monohydrate of ZG0163) was evaluated using human, monkey, dog, rat, and mouse liver microsomes as the in vitro models. The percentages of residues for ZG0128 after incubating in human, monkey, dog, rat, and mouse liver microsomes for 60 minutes was 55.5%, 63.1%, 67.1%, 80.3%, and 79.0%, respectively. The CLint values of in vivo clearance were calculated to be 24.1, 21.6, 33.4, 10.7, 26.0 mL/min/kg, respectively. Thus its was speculated that ZG0128 was a medium clearance drug in humans, monkeys, and mice, a high clearance drug in dogs, and a low clearance drug in rats.\nUsing UPLC-UV/Q-TOF MS, the potential metabolites of ZG0128 in various liver microsomes (human, monkey, dog, rat and mouse liver microsomes) incubation systems were identified and the metabolic pathways of ZG0128 were speculated. The main metabolite of ZG0128 in above five types of liver microsomes were primary alcohol metabolite formed by morpholine ring-opening (M3). […]"}},
  "data": [
    {"compound": "Cl.Cl.O.[2H]C1([2H])COCC([2H])([2H])N1c1ccc(Nc2nccc(-c3ccc(C(=O)NCC#N)cc3)n2)cc1", "note": "[ZG0128, Jaktinib Dihydrochloride Monohydrate]", "values": [
      {"measurement": "counts of three types of blood cells and spleen volume", "setting": "[1]", "value": "significant decrease"},
      {"measurement": "Ames test result", "setting": "test strains", "value": "negative"},
      {"measurement": "NOAEL", "setting": "[2]; rat, in vivo", "value": 30, "unit": "mg/kg"},
      {"measurement": "CLint of in vivo clearance", "setting": "[3]", "value": 24.1, "unit": "mL/min/kg"},
      {"measurement": "percentage of residue after 60 minutes", "setting": "[3]", "value": 55.5, "unit": "%"}
    ]},
    {"compound": "Jaktinib", "values": [
      {"measurement": "NOAEL", "setting": "[2]; 26 weeks", "value": 30, "unit": "mg/kg"},
      {"measurement": "NOAEL", "setting": "[2]; Wistar rats, oral, 26 weeks", "value": 30, "unit": "mg/kg/day"}
    ]}
  ]
}
